The record followed here is PMC10545747, “Development of cyclopeptide inhibitors of cGAS targeting protein-DNA interaction and phase separation” (Nature Communications, 2023).

Values joined by “and” are separate entries in the source; they are usually repeats but may differ in a detail not shown here. Equal entries are not always repeated. Square brackets hold non-standard residues; d marks the D form. Peptide text beside a SMILES is read from it.

For one experiment, the system named is THP1 cells. The experiment can be described thus: ELISA of IFN-β and CXCL10 after HSV-1 infection. It counts as cell-based, human. As for the experimental part:
THP1 cells were seeded into 96-well plates, and cell culture supernatants were collected and analyzed by ELISA kits for human IFNβ levels (R&D Systems, Cat# DY814-05) and human CXCL10 levels (R&D Systems, Cat# DY266-05) according to the manufacturer’s instructions. Mice serum was collected and analyzed by ELISA kits for mouse IFNβ levels (R&D Systems, Cat# DY8234-05) and mouse CXCL10 levels (R&D Systems, Cat# DY466-05) according to the manufacturer’s protocols.
(An ELISA detects its analyte on a solid surface through an enzyme-linked reagent.)

Experiment [1] concerns the target T1, recombinant human cGAS enzyme (hcGAS-ΔN, residues 147–522) (Homo sapiens, UniProt Q8N884).
T1 construct: N-terminally truncated human cGAS (hcGAS-ΔN, residues 147–522); 6xHis-SUMO (N, cleaved yes); made in house; host or cells: Escherichia coli BL21 (DE3)
The experiment can be described thus: RNA-based fluorescent biosensor assay of cGAS activity (2',3'-cGAMP formation), in vitro screening. It counts as biochemical. In a few lines:
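In 40 mM Tris-HCl pH 7.5, 100 mM NaCl, 10 mM MgCl2, ISD (0.5 μM) started the reaction with hcGAS-ΔN (1.5 μM), ATP (1 mM) and GTP (1 mM). Incubation was 2 h at 37 °C, with compounds screened at 20 μM. 2',3'-cGAMP formed was quantified with an RNA-based fluorescent biosensor.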

One may read the remaining activity as what remains of the control signal, in per cent. A word on the inhibition: it is the relative decrease from the control value, in per cent.

T1 sequence (Q8N884 147-522, stated change not applied): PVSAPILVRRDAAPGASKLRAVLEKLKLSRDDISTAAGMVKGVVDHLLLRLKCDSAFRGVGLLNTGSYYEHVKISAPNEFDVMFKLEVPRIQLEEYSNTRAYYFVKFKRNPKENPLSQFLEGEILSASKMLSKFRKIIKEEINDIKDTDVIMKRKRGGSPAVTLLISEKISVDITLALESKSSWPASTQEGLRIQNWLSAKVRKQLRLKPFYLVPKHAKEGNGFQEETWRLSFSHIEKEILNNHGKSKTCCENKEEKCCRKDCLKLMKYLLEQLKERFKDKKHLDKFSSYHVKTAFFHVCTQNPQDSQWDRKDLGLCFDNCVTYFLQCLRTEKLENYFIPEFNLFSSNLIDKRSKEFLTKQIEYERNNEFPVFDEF

As to `CC(C)C[C@@H]1NC(=O)[C@H](CCCNC(=N)N)NC(=O)[C@H](C(C)C)NC(=O)[C@@H]2CCCN2C(=O)[C@@H](Cc2ccccc2)NC(=O)[C@H](CC(C)C)NC(=O)[C@H](CCCNC(=N)N)NC(=O)[C@H](C(C)C)NC(=O)[C@H](C)NC(=O)[C@@H](Cc2ccccc2)NC1=O` [XQ2, Cyclo (LfAVRLfPVR)] (cyclo(L[dF]AVRL[dF]PVR)), the “production of IFN-β and CXCL10 upon HSV-1 infection” value with THP1 cells (10 μM) is “significantly inhibited the production of IFN-β and CXCL10”. Also, the “IFN-β protein, ELISA, Fig. 5a” value with THP1 cells (HSV-1 1×10^5 pfu 24 h, XQ2 10 μM) is 82.1785 and 88.212 and 94.6416. Moreover, the “CXCL10 protein, ELISA, Fig. 5b” value was 81.286 and 72.3045 and 81.612 in the experiment with THP1 cells (HSV-1 2×10^4 pfu 24 h, XQ2 10 μM); 1196.79 and 1171.64 and 1198.54 in the experiment with THP1 cells (HSV-1 5×10^4 pfu 24 h, XQ2 10 μM). For the same molecule, the “Remaining activity (%), Fig. 1a source data” value in experiment [1] (20 μM, replicate values) was 59.4781% and 59.6712%. For the same molecule, the remaining activity at 20 µM in experiment [1] (20 μM, replicate values, read-out: Remaining activity (%), Fig. 1a source data) was 59.5%. Besides, in experiment [1] (peptides screened at 20 μM, Supplementary Table 1 / Fig. S5b, 20 µM), the Inhibition % is recorded as at least 40%. Moreover, in experiment [1] (peptides screened at 20 μM, Supplementary Table 1 / Fig. S5b, read-out: Inhibition %), the inhibition at 20 µM turned out to be 40%.
